Results from paper PMC9739180, “Discovery of a Flavonoid FM04 as a Potent Inhibitor to Reverse P-Glycoprotein-Mediated Drug Resistance in Xenografts and Improve Oral Bioavailability of Paclitaxel” (International Journal of Molecular Sciences, 2022).

How the values were obtained:
P-gp [1] = target: T1, P-gp (Homo sapiens, UniProt P08183); experiment: Reversal of P-gp-mediated MDR in LCC6MDR cells (MTS cell viability, 5 days)
Procedure: To each well of a 96-well plate, 6500 cells of LCC6MDR were seeded in 180 μL supplemented medium. A 10 µL compound (FD18, 14a, FM04 or FM327) at different concentrations (0, 62.5, 125, 250, 500 and 1000 nM) was added to the well. […] The final volume in each well was 200 µL and the 96-well plate was incubated at 37 °C for 5 days. The cell viability was determined using the MTS assay as reported previously. The % of cell survival, IC50 of anticancer drugs towards the LCC6MDR and the EC50 of modulators were analyzed using nonlinear regression in Prism 5.0 (Prism version 5.0, GraphPad software, San Diego, CA, USA).

[2] = Cytotoxicity assay (MTS, 3 days), LCC6MDR; format: cell-based, human; conditions: human, LCC6MDR cells
Procedure: (§1) To each well of 96-well plate, 10,000 cells of LCC6, LCC6MDR or L929 were incubated with different concentrations of FM04 (0, 0.4, 1.2, 3.7, 11, 33 and 100 μM). The final volume in each well of 96-well plate was 100 μL and the plate was incubated for 3 days at 37 °C. The cell viability was determined using MTS assay as reported previously.

LCC6MDR = experiment: Cytotoxicity assay (MTS, 3 days), LCC6MDR; format: cell-based, human; conditions: at 61 nM to 153 nM
Procedure: as §1

LCC6 cells = experiment: IC50 of anticancer drugs in wild-type LCC6 with or without FM04; format: cell-based, human
From the text: Table S1. IC50 of anticancer drugs in LCC6 and LCC6MDR and P-gp modulating activity of FM04.
fold): IC50 of an anticancer drug of LCC6MDR without FM04/IC50 of an anticancer of LCC6 with or without
FM04 or LCC6MDR with FM04. N = 2 - 8 independent experiment. The IC50 values were presented as mean ±
standard error mean. /: not determined.

MRP1 = target: T2, MRP1 (Homo sapiens, UniProt P33527); experiment: MRP1-modulating activity in 2008/MRP1 cells (MTS); format: cell-based
T2 construct: expressed in transfected cells; host or cells: 2008/MRP1 (human ovarian cancer)
Procedure: The final volume in each well of the 96-well plate was 200 μL. The plate was then incubated for 5 days at 37 °C. The cell viability was determined using an MTS assay as reported previously.

P-gp [3] = target: T1, P-gp; experiment: Intracellular DOX accumulation assay in LCC6MDR cells
P-gp [4] = target: T1, P-gp; experiment: Transepithelial transport of PTX, Caco-2 transwell assay; format: in vitro ADME
Procedure: Figure 7 Mechanistic study of FM04 to increase the oral PTX absorption. (A) transepithelial permeability of PTX in Caco-2 transwell assay. When confluent monolayer of Caco2 cells was formed on the transwell, the permeability of PTX (10 μM) was studied with or without FM04 (10 μM). For apical to basolateral transport (A to B), compound was added at the apical side (donor) and samples of the medium collected at the basal side (receiver) at 0, 20, 40, 60, 80, 100 and 120 min and vice versa for basal to apical transport (B to A). The PTX level was determined using UPLC-MS/MS. The relative % of PTX was presented as mean ± standard error of mean. N = 2–3 independent experiments. Impact of FM04 on PTX metabolism. […] After incubation, the levels of PTX, metabolites 6α-hydroxpaclitaxel (6α-OHP) and p3′-hydroxpaclitaxel (p3-OHP) were determined by HPLC-MS/MS. (B) changes in PTX. […]
Caco-2 cells in between passage number 21 and 30 were used for the experiment, 1 × 10^5 cells/cm^2 Caco-2 cells were seeded in Costar 6-well transwell plate (Corning Inc). […] The integrity of cell monolayers was evaluated on the day of experiments by measuring the trans-epithelial electrical resistance (TEER) of the cell monolayers. […] Drug transport was evaluated at 37 °C by incubating the cells in media containing PTX (10 μM) with or without FM04 (10 μM) at the donor chamber and samples collected at the receiver chamber. […]

T1 sequence (P08183 whole entry): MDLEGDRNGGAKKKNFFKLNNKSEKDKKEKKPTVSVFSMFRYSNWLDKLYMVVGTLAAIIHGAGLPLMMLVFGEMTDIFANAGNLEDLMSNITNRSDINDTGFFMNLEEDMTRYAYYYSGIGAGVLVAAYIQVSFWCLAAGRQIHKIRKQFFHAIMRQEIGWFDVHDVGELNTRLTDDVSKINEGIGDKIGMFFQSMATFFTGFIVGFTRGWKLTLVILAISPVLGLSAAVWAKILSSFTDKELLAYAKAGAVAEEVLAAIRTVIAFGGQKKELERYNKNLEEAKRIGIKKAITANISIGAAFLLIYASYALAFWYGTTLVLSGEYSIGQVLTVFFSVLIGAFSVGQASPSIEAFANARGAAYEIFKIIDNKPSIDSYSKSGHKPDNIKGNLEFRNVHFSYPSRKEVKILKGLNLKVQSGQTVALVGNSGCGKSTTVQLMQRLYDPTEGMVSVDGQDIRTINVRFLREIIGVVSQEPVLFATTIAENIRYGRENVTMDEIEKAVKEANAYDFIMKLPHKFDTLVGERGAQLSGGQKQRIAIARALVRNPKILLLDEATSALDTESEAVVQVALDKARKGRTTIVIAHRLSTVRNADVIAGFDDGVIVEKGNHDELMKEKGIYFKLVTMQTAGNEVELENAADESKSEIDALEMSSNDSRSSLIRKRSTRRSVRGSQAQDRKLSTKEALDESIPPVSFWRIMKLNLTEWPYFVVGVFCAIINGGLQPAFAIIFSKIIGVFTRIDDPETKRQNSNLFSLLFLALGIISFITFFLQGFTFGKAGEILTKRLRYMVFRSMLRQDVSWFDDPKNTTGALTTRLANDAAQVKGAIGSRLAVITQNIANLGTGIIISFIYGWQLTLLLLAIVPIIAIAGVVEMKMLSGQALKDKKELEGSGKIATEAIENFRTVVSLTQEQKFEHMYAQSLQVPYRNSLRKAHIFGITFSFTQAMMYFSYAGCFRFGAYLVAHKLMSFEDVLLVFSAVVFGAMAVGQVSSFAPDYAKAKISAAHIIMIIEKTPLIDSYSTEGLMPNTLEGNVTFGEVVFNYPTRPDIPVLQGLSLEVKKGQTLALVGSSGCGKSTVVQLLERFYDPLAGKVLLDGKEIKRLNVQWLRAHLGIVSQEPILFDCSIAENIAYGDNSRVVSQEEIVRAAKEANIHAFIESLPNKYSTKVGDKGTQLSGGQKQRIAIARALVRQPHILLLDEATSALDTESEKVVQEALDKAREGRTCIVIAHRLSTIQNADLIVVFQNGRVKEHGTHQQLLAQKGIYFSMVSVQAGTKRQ
T2 sequence (P33527 whole entry): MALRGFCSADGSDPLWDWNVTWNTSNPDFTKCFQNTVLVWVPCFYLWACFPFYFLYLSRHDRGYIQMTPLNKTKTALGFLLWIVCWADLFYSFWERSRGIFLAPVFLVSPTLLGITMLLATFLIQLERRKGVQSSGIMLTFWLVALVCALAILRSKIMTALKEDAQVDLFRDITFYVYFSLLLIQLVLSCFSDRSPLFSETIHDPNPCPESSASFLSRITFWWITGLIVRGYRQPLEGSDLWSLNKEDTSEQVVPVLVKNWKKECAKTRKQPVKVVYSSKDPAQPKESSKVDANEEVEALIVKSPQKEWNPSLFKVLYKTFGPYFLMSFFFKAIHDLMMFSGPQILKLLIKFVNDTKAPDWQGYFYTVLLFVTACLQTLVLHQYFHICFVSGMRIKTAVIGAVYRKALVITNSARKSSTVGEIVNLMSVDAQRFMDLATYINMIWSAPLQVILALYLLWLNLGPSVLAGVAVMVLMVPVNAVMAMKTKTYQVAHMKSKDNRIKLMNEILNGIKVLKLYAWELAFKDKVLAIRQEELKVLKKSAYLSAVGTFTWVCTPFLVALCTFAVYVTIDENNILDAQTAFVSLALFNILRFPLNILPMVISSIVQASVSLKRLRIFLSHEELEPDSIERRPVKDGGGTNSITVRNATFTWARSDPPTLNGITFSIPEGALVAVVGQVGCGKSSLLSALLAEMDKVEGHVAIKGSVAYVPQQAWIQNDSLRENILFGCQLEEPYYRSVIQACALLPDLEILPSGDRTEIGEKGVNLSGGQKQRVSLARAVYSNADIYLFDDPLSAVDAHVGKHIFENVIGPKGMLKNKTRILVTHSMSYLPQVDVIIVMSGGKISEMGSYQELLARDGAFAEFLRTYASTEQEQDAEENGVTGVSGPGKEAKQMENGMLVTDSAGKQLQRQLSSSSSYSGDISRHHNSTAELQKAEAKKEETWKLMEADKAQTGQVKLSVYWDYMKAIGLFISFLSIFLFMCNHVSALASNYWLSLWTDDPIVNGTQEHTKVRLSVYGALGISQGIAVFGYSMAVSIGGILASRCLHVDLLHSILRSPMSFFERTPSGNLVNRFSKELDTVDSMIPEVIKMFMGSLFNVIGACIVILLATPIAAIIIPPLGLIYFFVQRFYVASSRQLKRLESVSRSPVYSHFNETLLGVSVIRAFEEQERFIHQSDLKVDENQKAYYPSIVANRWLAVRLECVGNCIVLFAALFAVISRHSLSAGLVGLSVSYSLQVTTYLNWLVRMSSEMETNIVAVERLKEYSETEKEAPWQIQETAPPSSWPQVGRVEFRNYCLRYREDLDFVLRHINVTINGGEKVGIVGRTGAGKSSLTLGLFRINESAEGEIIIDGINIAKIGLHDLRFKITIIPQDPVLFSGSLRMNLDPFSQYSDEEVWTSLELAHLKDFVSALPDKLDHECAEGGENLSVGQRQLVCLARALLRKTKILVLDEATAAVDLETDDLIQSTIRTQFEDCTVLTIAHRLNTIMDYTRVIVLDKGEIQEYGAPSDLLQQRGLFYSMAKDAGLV

With `O=c1cc(-c2ccc(OCCOCCNCc3ccccc3)cc2)oc2ccccc12` [FM04, 2-(4-(2-(2-(benzylamino)ethoxy)ethoxy)phenyl)-4H-chromen-4-one] the EC50 (P-gp [1]) was 83 ± 7 nM, the “EC50 needed for reversing MDR in LCC6MDR cells: PTX” value (P-gp [1]) was 83 nM and the “fold higher potency than FD18 in reversing PTX resistance” value (P-gp [1]) was 1.8 fold. It also gave an EC50 (P-gp [1]; EC50 for P-gp modulation, range over PTX reversal and DOX accumulation in LCC6MDR) of 64 to 83 nM, an EC50 (P-gp [1]; EC50 for chemosensitizing LCC6MDR towards vinblastine, vincristine, DOX, daunorubicin and mitoxantrone, range over the five drugs) of 61 to 153 nM and an EC50 (P-gp [1]; EC50 needed for reversing MDR in LCC6MDR cells: DOX, LCC6MDR) of 153 ± 39 nM. For the same compound, the EC50 (P-gp [1]; EC50 needed for reversing MDR in LCC6MDR cells: Daunorubicin, LCC6MDR) was 88 ± 52 nM, the EC50 (P-gp [1]; EC50 needed for reversing MDR in LCC6MDR cells: Mitoxantrone, LCC6MDR) was 64 ± 27 nM and the EC50 (P-gp [1]; EC50 needed for reversing MDR in LCC6MDR cells: PTX, LCC6MDR, PTX resistance) was 83 nM. The EC50 (P-gp [1]; EC50 needed for reversing MDR in LCC6MDR cells: Vinblastine, LCC6MDR) was 61 ± 13 nM, the EC50 (P-gp [1]; EC50 needed for reversing MDR in LCC6MDR cells: Vincristine, LCC6MDR) was 83 ± 11 nM and the IC50 at 3 days [2] was 5700 ± 1500 nM. The “cytotoxicity of FM04 alone towards LCC6MDR cells” value (LCC6MDR) was “did not exhibit cytotoxicity”, the “chemosensitization of wild-type LCC6 towards PTX, vinblastine and vincristine” value (LCC6 cells; FM04 1 μM) was “did not chemosensitize the wild-type LCC6 cells” and the “reversal of MRP1-mediated DOX resistance” value (MRP1; 1 μM, 2008/MRP1) was “did not reverse”. The “RF, DOX in 2008/MRP1” value (MRP1; IC50 without modulator / IC50 with 1 µM modulator) was 1.2, the EC50 (P-gp [3]) was 64 nM and the “decrease of PTX transport from B to A” value (P-gp [4]; PTX 10 μM + FM04 10 μM) was 17%.

With `CC(=O)O[C@H]1C(=O)[C@@]2(C)[C@H]([C@H](OC(=O)c3ccccc3)[C@]3(O)C[C@H](OC(=O)[C@H](O)[C@@H](NC(=O)c4ccccc4)c4ccccc4)C(C)=C1C3(C)C)[C@]1(OC(C)=O)CO[C@@H]1C[C@@H]2O` [PTX, paclitaxel] the “RF, LCC6MDR + 1 μM FM04” value (P-gp [1]) was 34.1, the “RF, LCC6MDR + DMSO” value (P-gp [1]) was 1.0 and the IC50 (LCC6 cells; Homo sapiens, LCC-6, wild-type LCC6, no modulator, read-out: IC50 of anticancer drug, LCC6 + DMSO) was 2.1 ± 0.5 nM. The “RF, LCC6 + DMSO” value (LCC6 cells; IC50 in LCC6MDR without FM04 / IC50 in LCC6) was 61.7, the “RF, LCC6 + 1 μM FM04” value (LCC6 cells; IC50 in LCC6MDR without FM04 / IC50 in LCC6 with FM04) was 43.2 and the “direction of transepithelial transport of PTX” value (P-gp [4]; PTX 10 µM without FM04) was “only pumped from B to A, but not A to B”.
